This assay has as its system mouse-adapted Dengue virus (DEN-2, strain P23085). As to the kind of experiment: model of Dengue virus infection in mice. It is filed as in vivo. The settings on record: BALB/c mice infected s.c. with DEN-2 at 1-2 LD50, 4.8 mg/kg/day i.m. once a day for 5 days from day 3, read at day 10, p < 0.05. On the procedure:
A further possibility for establishing the biological effect in vivo is the reduction or complete suppression of mortality because of an infection with haemolytic viruses or bacteria. For this purpose, mice are, as described in Example 8, for instance infected with a dose of Dengue viruses, wherein 50% of the animals die within a period of 5-20 days after infection. The inventive compounds bring about a reduction of this mortality at a dose ranging from 0.001 to 500 mg/kg body weight, preferably at a dose ranging from […] body weight.
The biological effect of the compound of Example 3 was established in a model of Dengue virus infection in mice. 5-week-old male BALB/c mice were divided into 2 groups. All animals were infected subcutaneously with a mouse-adapted Dengue virus (DEN-2, strain P23085 at a dose of 1-2 LD50. 15 mice received 0.1 ml of 0.8% saline as intramuscular injection (control). The treated animals received 4.8 mg/kg/day of the agent of Example 3 as an intramuscular injection (diluted in 0.1 ml of 0.8% saline) once a day for 5 days, starting on day 3 after the virus infection.
At the end of the treatment period (day 10) the survival rates were compared.

No end group written: not given here.

Turning to “Gly-His-Arg-Pro-Leu-Asp-Lys-Lys-Arg-Glu-Glu-Ala-Pro-Ser-Leu-Arg-Pro-Ala-Pro-Pro-Pro-Ile-Ser-Gly-Gly-Gly-Tyr-Arg-Cys-(S-succinimido-PEG20K)-amide (GHRPLDKKREEAPSLRPAPPPISGGGYRC(succinimido‑PEG20K)-NH2) [Example 3]”, the “Mortality Percentage” value was 0%. Also, the Mortality (dead/total animals) is reported as 0/10.

For the origin of these results see patent publication US7799758B2, “Peptides and peptide derivatives as well as pharmaceutical compositions containing the same” (priority 2006, dated 2010).
